Experimental data published in US7348425B2, “Inhibitors of HCV replication” (Bristol-Myers Squibb Company, priority 2004, dated 2008).
Read-outs that look alike come from different tables or passages of the source.

What was measured:
HCV replicon = HCV replicon luciferase assay; assay type: cell-based, Hepatitis C virus; details: Hepatitis C virus
Experimental: To prepare plates, HCV replicon cells, with or without a Renilla luciferase reporter gene, were trypsinized and placed into each well of a 96-well plate with titrated test compounds added in columns 3 through 12; columns 1 and 2 contained a control compound (HCV protease inhibitor), and the bottom row contained cells without compound. The plates were then placed in a CO2 incubator at 37 degrees C.
Assays. Subsequent to addition of the test compounds described above (FRET Assay Preparation), at various times the plate was removed and Alamar blue solution (Trek Diagnostics, #00-100) was added per well as a measure of cellular toxicity. After reading in a Cytoflour 4000 instrument (PE Biosystems), plates were rinsed with PBS and then used for FRET assay by the addition of 30 ul of the FRET peptide assay reagent described above (FRET Assay Preparation) per well. The plate was then placed into the Cytoflour 4000 instrument which had been set to 340 excite/490 emission, automatic mode for 20 cycles and the plate read in a kinetic mode. Typically, the signal to noise using an endpoint analysis after the reads was at least three-fold. Alternatively, after Alamar blue reading, plates were rinsed with PBS, 50 ul of DMEM (high glucose) without phenol red was added and plates were then used for luciferase assay using the Promega Dual-Glo Luciferase Assay System.
Compound analysis was determined by quantification of the relative HCV replicon inhibition and the relative cytotoxicity values. To calculate cytoxicity values, the average Alamar Blue fluorescence signals from the control wells were set as 100% non-toxic. The individual signals in each of the compound test wells were then divided by the average control signal and multiplied by 100% to determine […]. To calculate the HCV replicon inhibition values, an average background value was obtained from the two wells containing the highest amount of HCV protease inhibitor at the end of the assay period. These numbers were similar to those obtained from naïve Huh-7 cells.
The background numbers were then subtracted from the average signal obtained from the control wells and this number was used as 100% activity. The individual signals in each of the compound test wells were then divided by the averaged control values after background subtraction and multiplied by 100% to determine percent activity. EC50 values for a protease inhibitor titration were calculated as the concentration which caused a 50% reduction in FRET or luciferase activity. The two numbers generated for the compound plate, percent cytoxicity and percent activity were used to determine compounds of interest for further analysis.

[1] = molecular target: T1, HCV NS5B RdRp genotype 1b (Hepatitis C virus genotype 1b, UniProt Q9WMX2); test: Standard HCV NS5B RdRp enzyme assay; assay type: biochemical; details: standard method
T1 construct: The protein was expressed with an 18 amino acid C-terminal truncation to enhance the solubility; made in house; host or cells: E. coli BL21 (DE3), pET21a
T1 sequence (Q9WMX2 2420-2992): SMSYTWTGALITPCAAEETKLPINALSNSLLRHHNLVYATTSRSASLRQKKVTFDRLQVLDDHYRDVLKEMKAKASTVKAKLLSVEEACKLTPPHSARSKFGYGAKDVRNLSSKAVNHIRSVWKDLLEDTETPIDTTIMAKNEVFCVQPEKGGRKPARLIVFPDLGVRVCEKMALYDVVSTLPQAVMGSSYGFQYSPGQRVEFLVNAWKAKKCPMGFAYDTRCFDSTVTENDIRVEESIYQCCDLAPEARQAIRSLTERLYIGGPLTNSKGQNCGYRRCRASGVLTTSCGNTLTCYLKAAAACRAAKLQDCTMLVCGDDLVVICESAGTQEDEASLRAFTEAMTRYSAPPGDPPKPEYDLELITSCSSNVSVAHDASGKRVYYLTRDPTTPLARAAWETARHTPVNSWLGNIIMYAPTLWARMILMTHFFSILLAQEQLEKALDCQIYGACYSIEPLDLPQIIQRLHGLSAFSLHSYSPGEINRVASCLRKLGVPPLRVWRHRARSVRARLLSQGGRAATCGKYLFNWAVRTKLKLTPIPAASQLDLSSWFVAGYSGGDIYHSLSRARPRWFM
Experimental: HCVNS5B RdRp cloning, expression, and purification. The cDNA encoding the NS5B protein of HCV, genotype 1b, was cloned into the pET21a expression vector. The protein was expressed with an 18 amino acid C-terminal truncation to enhance the solubility. The E. coli competent cell line BL21 (DE3) was used for expression of the protein. Cultures were grown at 37° C. for ˜4 hours until the cultures reached an optical density of 2.0 at 600 nm. The cultures were cooled to 20° C. and induced with 1 mM IPTG. Fresh ampicillin was added to a final concentration of 50 μg/ml and the cells were grown overnight at 20° C.
Cell pellets (3 L) were lysed for purification to yield 15-24 mgs of purified NS5B. The lysis buffer consisted of 20 mM Tris-HCl, pH 7.4, 500 mM NaCl, 0.5% triton X-100, 1 mM DTT, 1 mM EDTA, 20% glycerol, 0.5 mg/ml lysozyme, 10 mM MgCl2, 15 ug/ml deoxyribonuclease I, and Complete TM protease inhibitor tablets (Roche). After addition of the lysis buffer, frozen cell pellets were resuspended using a tissue homogenizer. To reduce the viscosity of the sample, aliquots of the lysate were sonicated on ice using a microtip attached to a Branson sonicator. The sonicated lysate was centrifuged at 100,000×g for 1 hr at 4° C. and filtered through a 0.2 μm filter unit (Corning).
The protein was purified using three sequential chromatography steps: Heparin sepharose CL-6B, polyU sepharose 4B, and Hitrap SP sepharose (Pharmacia). The chromatography buffers were identical to the lysis buffer but contained no lysozyme, deoxyribonuclease I, MgCl2 or protease inhibitor and the NaCl concentration of the buffer was adjusted according to the requirements for charging the protein onto the column. Each column was eluted with a NaCl gradient which varied in length from 5-50 column volumes depending on the column type. After the final chromatography step, the resulting purity of the enzyme is >90% based on SDS-PAGE analysis. The enzyme was aliquoted and stored at −80° C.
Standard HCV NS5B RdRp enzyme assay. HCV RdRp genotype Ib assays were run in a final volume of 60 μl in 96 well plates (Costar 3912). The assay buffer is composed of 20 mM Hepes, pH 7.5, 2.5 mM KCl, 2.5 mM MgCl2, 1 mM DTT, 1.6 U RNAse inhibitor (Promega N2515), 0.1 mg/ml BSA (Promega R3961), and 2% glycerol. All compounds were serially diluted (3-fold) in DMSO and diluted further in water such that the final concentration of DMSO in the assay was 2%. HCV RdRp genotype 1b enzyme was used at a final concentration of 28 nM. A polyA template was used at 6 nM, and a biotinylated oligo-dT12 primer was used at 180 nM final concentration. Template was obtained commercially (Amersham 27-4110). Biotinylated primer was prepared by Sigma Genosys. ^3H-UTP was used at 0.6 μCi (0.29 μM total UTP). Reactions were initiated by the addition of enzyme, incubated at 30° C. for 60 min, and stopped by adding 25 μl of 50 mM EDTA containing SPA beads (4 μg/μl, Amersham RPNQ 0007). Plates were read on a Packard Top Count NXT after >1 hr incubation at room temperature.
The IC50 values for compounds were determined using seven different [I]. IC50 values were calculated from the inhibition using the formula y=A+((B−A)/(1+((C/x)^D))). FRET Assay Preparation. To perform the HCV FRET screening assay, 96-well cell culture plates were used. The FRET peptide (Anaspec, Inc.) (Taliani et al., Anal. Biochem. 240:60-67 (1996), hereby incorporated by reference in its entirety) contains a fluorescence donor, EDANS, near one end of the peptide and an acceptor, DABCYL, near the other end. The fluorescence of the peptide is quenched by […] resonance energy transfer (RET) between the donor and the acceptor, but as the NS3 protease cleaves the peptide the products are released from RET quenching and the fluorescence of the donor becomes apparent. […]

[2] = luciferase method, read-out: EC50

Row | Compound | EC50 (HCV replicon; [2]) [nM] | IC50 [1] [nM] | EC50 (HCV replicon) [nM]
1 | O=C(O)c1ccc2c(C3CCCCC3)c3n(c2c1)CC=Cc1cc(OCc2ccccc2)ccc1-3 | 100 to 1000 | > 1000 | 
2 | O=C(O)c1ccc2c(C3CCCCC3)c3n(c2c1)CCCc1occc1-3 | 1000 to 10000 | > 1000 | 
3 | CC(C)(C)OC(=O)N1/C=C\CCn2c(c(C3CCCCC3)c3ccc(C(=O)O)cc32)-c2ccccc21 | 1000 to 10000 | > 1000 | 
4 | O=C(O)c1ccc2c(C3CCCCC3)c3n(c2c1)CCCCNc1ccccc1-3 | 100 to 1000 | > 1000 | 
5 | O=C(O)c1ccc2c(C3CCCCC3)c3n(c2c1)CCCc1cc(O)ccc1-3 | 100 to 1000 | 100 to 1000 | 
6 | O=C(O)c1ccc2c(C3CCCCC3)c3n(c2c1)C(O)c1ccccc1-3 (centres unmarked) | > 10000 | > 1000 | 
7 | COC1c2ccccc2-c2c(C3CCCCC3)c3ccc(C(=O)O)cc3n21 (centres unmarked) | > 10000 | > 1000 | 
8 | O=C(O)c1ccc2c(C3CCCCC3)c3c4ccccc4cc(C(=O)O)n3c2c1 | > 10000 | > 1000 | 
9 | O=C(O)C1=Cc2ccccc2-c2c(C3CCCCC3)c3ccc(C(=O)O)cc3n2C1 | > 10000 | 100 to 1000 | 
10 | CN(C)S(=O)(=O)NC(=O)c1ccc2c(C3CCCCC3)c3n(c2c1)CCCc1ccccc1-3 | 100 to 1000 | 100 to 1000 | 
11 | Cn1cnc(S(=O)(=O)NC(=O)c2ccc3c(C4CCCCC4)c4n(c3c2)CCCc2ccccc2-4)c1 | 1000 to 10000 | > 1000 | 
12 | O=C1Cn2c(c(C3CCCCC3)c3ccc(C(=O)NS(=O)(=O)C4CC4)cc32)-c2ccccc2N1 | 100 to 1000 | 100 to 1000 | 
13 | CCOC(=O)/C=C/c1ccc(NC(=O)C2(NC(=O)c3ccc4c(C5CCCCC5)c5n(c4c3)CCCc3ncccc3-5)CCCC2)cc1 | < 100 | > 1000 | 
14 | O=C(O)/C=C/c1ccc(NC(=O)C2(NC(=O)c3ccc4c(C5CCCCC5)c5n(c4c3)CCCc3ncccc3-5)CCCC2)cc1 | < 100 | 100 to 1000 | 
15 | COC(=O)/C=C/c1ccc(NC(=O)C2(NC(=O)c3ccc4c(C5CCCCC5)c5n(c4c3)CCOc3cccnc3-5)CCCC2)cc1 | 100 to 1000 | > 1000 | 
16 | O=C(O)/C=C/c1ccc(NC(=O)C2(NC(=O)c3ccc4c(C5CCCCC5)c5n(c4c3)CCOc3cccnc3-5)CCCC2)cc1 | < 100 | 100 to 1000 | 
17 | CC(C)(C)OC(=O)/C=C/c1ccc(NC(=O)C2(NC(=O)c3ccc4c(C5CCCCC5)c5n(c4c3)CC(=O)Nc3cccnc3-5)CCCC2)cc1 | 100 to 1000 | > 1000 | 

Row | Compound | EC50 (HCV replicon; [2]) [nM] | IC50 [1] [nM] | EC50 (HCV replicon) [nM]
18 | COC(=O)/C=C/c1ccc(NC(=O)C2(NC(=O)c3ccc4c(C5CCCCC5)c5n(c4c3)CCOc3ccccc3-5)CCCC2)cc1 |  | > 1000 | 
19 | O=C(O)/C=C/c1ccc(NC(=O)C2(NC(=O)c3ccc4c(C5CCCCC5)c5n(c4c3)CCOc3ccccc3-5)CCCC2)cc1 | < 100 | 100 to 1000 | 
20 | O=C(O)c1ccc2c(C3CCCCC3)c3n(c2c1)CC(C(=O)N1CCN(c2ccncc2)CC1)Cc1ccccc1-3 (centres unmarked) | 100 to 1000 | 100 to 1000 | 
21 | COC(=O)c1ccc2c(C3CCCCC3)c3n(c2c1)CC(C(=O)N1CCN(c2ccncc2)CC1)Cc1ccccc1-3 (centres unmarked) | 100 to 1000 | > 1000 | 
22 | O=C(O)c1ccc2c(C3CCCCC3)c3n(c2c1)CC(C(=O)N1CCC(O)CC1)Cc1ccccc1-3 (centres unmarked) | 100 to 1000 | 100 to 1000 | 
23 | O=C(O)c1ccc2c(C3CCCCC3)c3n(c2c1)CC(C(=O)N1CCOCC1)=Cc1ccccc1-3 |  | 100 to 1000 | 100 to 1000
24 | COC(=O)c1ccc2c(C3CCCCC3)c3n(c2c1)CC(C(=O)N1CCOCC1)=Cc1ccccc1-3 | 1000 to 10000 | > 1000 | 
25 | O=C(O)c1ccc2c(C3CCCCC3)c3n(c2c1)CC(C(=O)N1CCN(c2ccncc2)CC1)=Cc1ccccc1-3 | 100 to 1000 | 100 to 1000 | 
26 | COC(=O)c1ccc2c(C3CCCCC3)c3n(c2c1)CC(C(=O)N1CCN(c2ccncc2)CC1)=Cc1ccccc1-3 | 1000 to 10000 | > 1000 | 
27 | O=C(O)/C=C/c1ccc(NC(=O)C2(NC(=O)c3ccc4c(C5CCCCC5)c5n(c4c3)CC(C(=O)N3CCOCC3)Cc3ccccc3-5)CCCC2)cc1 (centres unmarked) | < 100 | 100 to 1000 | 
28 | CN(C)S(=O)(=O)NC(=O)c1ccc2c(C3CCCCC3)c3n(c2c1)CC(C(=O)N1CCN(c2ccncc2)CC1)Cc1ccccc1-3 (centres unmarked) | < 100 | 100 to 1000 | 
29 | CN(C)S(=O)(=O)NC(=O)c1ccc2c(C3CCCCC3)c3n(c2c1)CC(C(=O)N1CCOCC1)Cc1ccccc1-3 (centres unmarked) | < 100 | 100 to 1000 | 
30 | CN1CCN(C(=O)C2Cc3ccccc3-c3c(C4CCCCC4)c4ccc(C(=O)NS(=O)(=O)N(C)C)cc4n3C2)CC1 (centres unmarked) | 100 to 1000 | 100 to 1000 | 
31 | CN(C)S(=O)(=O)NC(=O)c1ccc2c(C3CCCCC3)c3n(c2c1)CC(C(=O)N1CCC(N2CCCC2)CC1)Cc1ccccc1-3 (centres unmarked) | < 100 | 100 to 1000 | 
32 | CN(C)S(=O)(=O)NC(=O)c1ccc2c(C3CCCCC3)c3n(c2c1)CC(C(=O)N1CCCC(O)C1)Cc1ccccc1-3 (centres unmarked) | 100 to 1000 | 100 to 1000 | 
33 | CN(C)S(=O)(=O)NC(=O)c1ccc2c(C3CCCCC3)c3n(c2c1)CC(C(=O)N1CCOCC1)=Cc1ccccc1-3 |  | 100 to 1000 | < 100
